Source: US20130295150A1, “ELECTRICITY-GENERATING PARTICULATES AND THE USE THEREOF” (Johnson & Johnson Consumer Companies, Inc., priority 2007, published 2013)

Tests used:
Format in all cases: cell-based
Human keratinocyte cells = assay: Stimulation of hydrogen peroxide production, CM-H2DCFDA fluorescence; conditions: 0.03% positive control
Method: Human keratinocyte cells were seeded in assay plates at identical densities and incubated for 48 hours at 37° C. with 5% CO2. […] Cells were treated with galvanic particulates or zinc or copper metal powders alone over increasing amounts of time. Treatment of control wells with 0.03% hydrogen peroxide served as a positive control. Hydrogen peroxide production was quantitated using a fluorescent plate reader set at wavelengths 485 excitation/530 emission. The results are depicted in Tables 17 and 18.

[1] = tested on: Human T-cells stimulated with PHA; assay: Human T-cell cytokine release stimulated with PHA; conditions: 100 ug/ml, 10 μg/mL PHA, 48-hour incubation; for Cytokine Release Percent (%) Reduction: IL-2
Method: Human T-cells were collected from a healthy adult […] via leukopheresis. The T-cells were isolated from peripheral blood via Ficol gradient, and the cells were adjusted to a density of 1×10^6 cells/mL in serum free lymphocyte growth medium (ExVivo-15, Biowhittaker, Walkersville, Md.). Human T-cells were stimulated with 10 μg/mL PHA in the presence or absence of test compounds following published method (Hamamoto Y., et al. Exp Dermatol 2:231-235, 1993). Following a 48-hour incubation at 37° C. with 5% CO2, supernatant was removed and evaluated for cytokine content using commercially available multiplex cytokine detection kit.

MRSA [2] = assay: Sustained efficacy, zone of inhibition on day 1 and after transfer to new plate on day 2; conditions: 1% in agar disc
Method: (§1) Agars discs containing either galvanic particulates as described in Example 1(a) or zinc acetate at 1% were placed on TSA agar surface inoculated with about 6 log CFU of MRSA or C. albicans and incubated at 37° C. for 24 hr (day-1).

C. albicans [3] = assay: as above; conditions: 1% in agar disc
Method: as §1

MRSA [4] = assay: Zone of inhibition testing versus copper acetate and zinc acetate; conditions: about 6 log CFU, 37° C., 24 hr
Method: (§2) Zone of inhibition testing was performed on agar discs containing copper-zinc galvanic particulates from Example 1(a) at 0.5%, Zn acetate at 0.5%, and Cu acetate at 0.1%. The discs were placed on TSA agar surface, inoculated with about 6 log CFU of MRSA or C. albicans, and incubated at 37° C. for 24 hr.

C. albicans [5] = assay: as above; conditions: about 6 log CFU, 37° C., 24 hr
Method: as §2

MRSA [6] = assay: Agar disc microwell assay, log reduction by plate count; conditions: about 6 log CFU in saline, 37° C., 200 rpm
Method: (§3) Agar discs containing copper-zinc galvanic particulates from Example 1(a) or zinc acetate at a concentration of 0.1%, 0.5%, or 1% were exposed to about 6 log CFU of MRSA or C. albicans in saline in microwell plate and incubated at 37° C. and 200 rpm for 24 hrs. Plate count was performed to enumerate the viable microorganisms after the incubation. Log reduction was defined as the log difference of the inoculum before and after the incubation with the test articles (e.g., a log reduction of 6 for the inoculum of 6 log means all the inoculum were killed, and a log reduction of 3 for the inoculum of 6 log means […] of the inoculum were killed).
(§4) Agar discs containing 0.1% copper coated zinc galvanic particulates from Example 1(a) or zinc acetate at 1% or copper acetate at 0.1% were exposed to about 6 log CFU of MRSA or C. albicans in saline in microwell plates, and incubated at 37° C., 200 rpm for 24 hr.
(§5) Plate count was performed to enumerate the viable microorganisms after the incubation. Log reduction was defined as the log difference of the inoculum before and after the incubation with the test articles.

C. albicans [7] = assay: as above; conditions: about 6 log CFU in saline, 37° C., 200 rpm
Method: as §3, §4, §5

[8] = same disc moved to newly inoculated TSA plate, 24 hr (day-2)
[9] = Table 2, test material 0.10% in agar disc, 24 hrs
[10] = Table 2, test material 0.50% in agar disc, 24 hrs
[11] = Table 2, test material 1.00% in agar disc, 24 hrs
[12] = Table 4, 1% in agar disc, 24 hr
[13] = Table 4, 0.1% in agar disc, 24 hr

OO [Example H2O2, hydrogen peroxide]
Hydrogen peroxide production (fluorescence), 30 Minutes (Human keratinocyte cells): 416.6 ± 61.3
Hydrogen peroxide production (fluorescence), 60 Minutes (Human keratinocyte cells): 591.4 ± 82.7
Hydrogen peroxide production (fluorescence), 200 Minutes (Human keratinocyte cells): 1117.5 ± 153.8
Hydrogen peroxide production (fluorescence), 240 Minutes (Human keratinocyte cells): 1214.8 ± 149.7
Hydrogen peroxide production (fluorescence), Baseline (Human keratinocyte cells): 98.1 ± 4.4

C[C@]12CCC(=O)C=C1CC[C@@H]1[C@@H]2[C@@H](O)C[C@@]2(C)[C@H]1CC[C@]2(O)C(=O)CO [Hydrocortisone]
Cytokine Release IL-2 [1]: 7.69 ± 5.64 pmol/mL
Cytokine Release Percent (%) Reduction [1]: 98.6%

CC(=O)[O-].CC(=O)[O-].[Zn+2] [Zinc Acetate, zinc acetate]
zone of inhibition, day 1 (MRSA [2]; 37° C., 24 hr (day-1)): produce a zone of inhibition
zone of inhibition, day 2 (MRSA [2]; [8]): did not show any inhibition
zone of inhibition, day 1 (C. albicans [3]; 37° C., 24 hr (day-1)): produce a zone of inhibition
zone of inhibition, day 2 (C. albicans [3]; [8]): did not show any inhibition
zone of inhibition (MRSA [4]; 0.5% in agar disc on TSA agar): smaller zone of inhibition, approximately one half the radius
zone of inhibition (C. albicans [5]; 0.5% in agar disc on TSA agar): smaller zone of inhibition, approximately one half the radius
LOG REDUCTION MRSA (MRSA [6]; [9]): 1.7
LOG REDUCTION MRSA (MRSA [6]; [10]): 3.2
LOG REDUCTION MRSA (MRSA [6]; [11]): 5.1
LOG REDUCTION MRSA (MRSA [6]; [12]): 5.1
LOG REDUCTION C. albicans (C. albicans [7]; [9]): 2.2
LOG REDUCTION C. albicans (C. albicans [7]; [10]): 2.9
LOG REDUCTION C. albicans (C. albicans [7]; [11]): 4.7
LOG REDUCTION C. albicans (C. albicans [7]; [12]): 4.7

[Cl-].[Cl-].[Zn+2] [Zinc Chloride]
Cytokine Release IL-2 [1]: 566.3 ± 20.6 pmol/mL
Cytokine Release Percent (%) Reduction [1]: −0.6%

copper acetate
Cytokine Release IL-2 [1]: 312.9 ± 96.8 pmol/mL
Cytokine Release Percent (%) Reduction [1]: 44.4%
zone of inhibition (MRSA [4]; 0.1% in agar disc on TSA agar): did not show any visible zone of inhibition
zone of inhibition (C. albicans [5]; 0.1% in agar disc on TSA agar): did not show any visible zone of inhibition
LOG REDUCTION MRSA (MRSA [6]; [13]): 0.2
LOG REDUCTION C. albicans (C. albicans [7]; [13]): 0.3
